According to PubChem BioAssay (NCI):
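Where inhibition never reached the appropriate level, the endpoint shown equals the highest concentration tested. Otherwise, values were interpolated linearly from a five-concentration, 48-hour dose response in 96-well plates. GI50: concentration for 50% inhibition of growth. TGI is the concentration that stops growth completely.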

Assays:
Experiment in all cases: inhibition of tumour cell growth, NCI panel, 48 h
MDA-N = system: MDA-N
HS 578T breast = system: HS 578T breast
BT-549 breast = system: BT-549 breast
HOP-18 NSCLC = system: HOP-18 NSCLC
LXFL 529 NSCLC = system: LXFL 529 NSCLC
DLD-1 colon = system: DLD-1 colon
DMS 273 small cell lung = system: DMS 273 small cell lung
XF 498 CNS = system: XF 498 CNS
RXF-631 renal = system: RXF-631 renal

Row | Compound | TGI (HS 578T breast) [µM] | TGI (BT-549 breast) [µM] | GI50 (HS 578T breast) [µM] | GI50 (BT-549 breast) [µM] | also measured
1 | O=C1CC=C2C3CC4N(CCC45c4ccccc4N1C25)C/C3=C\CO (stereo not drawn) | > 100 | > 100 |  |  | TGI (MDA-N): > 100 µM
2 | COc1ccc(NC(=O)c2ccc(C(F)(F)F)nc2Nc2ccc(Cl)cc2C)cc1Cl | 28.3 | 18.6 | 6.9 | 4.88 | 
3 | O=C(O)c1nn(-c2ccc(Cl)cc2)c2c1C(=O)c1ccccc1C2=O | > 100 | > 100 |  |  | TGI (MDA-N): > 100 µM
4 | NC1=C(O)/C(=N/NS(=O)(=O)c2ccccc2)C(c2ccc3c(c2)OCO3)O1 (stereo not drawn) |  |  |  |  | TGI (HOP-18 NSCLC): > 100 µM; TGI (LXFL 529 NSCLC): > 100 µM; TGI (DLD-1 colon): > 100 µM; TGI (DMS 273 small cell lung): > 100 µM
5 | CC1(C)CC[C@]2(C(=O)NCCNCCN)CC[C@]3(C)C(=CC[C@@H]4[C@@]5(C)CCC(=O)C(C)(C)[C@@H]5CC[C@]43C)[C@@H]2C1 | 4.17 | 3.26 | 1.92 | 1.56 | 
6 | O=C(N/C(=C\c1cccc([N+](=O)[O-])c1)c1nc2c3c(ccc2[nH]1)C(=O)c1ccccc1C3=O)c1ccccc1 |  |  |  |  | TGI (HOP-18 NSCLC): > 100 µM; TGI (LXFL 529 NSCLC): > 100 µM; TGI (XF 498 CNS): > 100 µM; TGI (DLD-1 colon): > 100 µM
7 | CN1CCN(c2ccncc2S(=O)(=O)N2CCN(C)CC2)CC1 | > 100 | > 100 |  |  | TGI (MDA-N): > 100 µM
8 | O=[N+]([O-])c1cc(I)cc(/C=N/NS(=O)(=O)c2ccc(F)cc2)c1O |  |  |  |  | TGI (HOP-18 NSCLC): 53.2 µM; TGI (LXFL 529 NSCLC): 43.1 µM; TGI (RXF-631 renal): 57.9 µM; TGI (DLD-1 colon): > 100 µM; TGI (DMS 273 small cell lung): 48.8 µM
9 | Cn1cc(-c2ncnc3ccc(-c4cnc(Cl)c(NS(C)(=O)=O)c4)cc23)c2ccccc21 | 1.64 | 7.68 | 0.14 | 0.566 | 
10 | Cn1nc(-c2ccccc2)c2c(/C=C/c3ccc(F)cc3)onc2c1=O |  |  |  |  | TGI (HOP-18 NSCLC): > 100 µM; TGI (LXFL 529 NSCLC): > 100 µM; TGI (XF 498 CNS): > 100 µM; TGI (DLD-1 colon): > 100 µM; TGI (DMS 273 small cell lung): > 100 µM
11 | NC(CCl)=NCC12CC3CC(CC(C3)C1)C2 | 42.1 | 14.2 | 4.47 | 2.43 | 
12 | O=C(N/N=C/c1ccc([N+](=O)[O-])cc1)c1ccccc1Nc1ccnc(C(F)(F)F)c1 | 49.8 |  | 2.26 |  | 
13 | CCC(CO)Nc1nc(NCc2ccccc2)c2n[nH]c(C(C)C)c2n1 (stereo not drawn) | 34.3 | 23.7 | 11.6 | 10.7 | 
14 | O=C1/C(=C/c2ccc(Cl)cc2)N=C(c2ccccc2)N1c1cc(C(F)(F)F)ccc1Cl | 66.5 |  | 21.4 |  | 
15 | C[C@]1(c2nc3c(C(N)=O)cccc3[nH]2)CCCN1 | > 100 | > 100 | > 100 | > 100 | 
16 | Cc1cccc2c(=O)c3c(sc12)c(NCCCN)nc1ccccc13 |  | 12.6 |  | 2.6 | 
17 | N#Cc1c(N)c(C(=O)c2ccc3c(c2)OCCO3)n2c1CCCC2 | > 74.9 | > 100 | 3.08 | 4.8 | 

Row | Compound | TGI (HS 578T breast) [µM] | TGI (BT-549 breast) [µM] | GI50 (HS 578T breast) [µM] | GI50 (BT-549 breast) [µM] | also measured
18 | Cn1cnc(SC2=CC(=O)C=C3S[C@H]4C[C@@]23c2c(c(O)c3c5c2=NCCC=5C=N3)N4)c1CC(N)C(=O)O (stereo partly drawn) | 96.1 |  | 39.7 |  | TGI (HOP-18 NSCLC): 30.7 µM; GI50 (MDA-N): 2 µM; TGI (MDA-N): 3.63 µM; GI50 (XF 498 CNS): 17.6 µM; TGI (XF 498 CNS): 31.4 µM; GI50 (DLD-1 colon): 12.6 µM; TGI (DLD-1 colon): 26.3 µM; GI50 (DMS 273 small cell lung): 7.33 µM; TGI (DMS 273 small cell lung): 20.3 µM
19 | CCCCCCCC(=O)Nc1nc2[nH]c(CN3CCN(Cc4cccc(I)c4)CC3)c(CN3CCN(Cc4cccc(I)c4)CC3)c2c(=O)[nH]1 | 1.95 | 1.83 | 0.882 | 0.885 | 
20 | CC(=O)CCc1ccc(Oc2c3ccccc3nc3occc23)cc1 | 44.5 |  | 20.4 |  | 
21 | [Mn+3].[O-][Cl+3]([O-])([O-])O.[O-]c1ccccc1C=NCCN1CC1.[O-]c1ccccc1C=NCCN1CC1 | > 100 | 50.8 | 33.6 | 19.4 | 
22 | CC[C@H](C)[C@H](NC(=O)c1ncccn1)C(=O)N(C)[C@H](C[C@@H](OC(C)=O)c1nc(C(=O)N[C@@H](Cc2ccccc2)C[C@H](C)C(=O)OC)cs1)C(C)C | > 25 | 11.7 | 1.25 | 1.47 | 
23 | Cc1ccccc1SC(/C=C/NNC1=NC(c2ccccc2)C(c2ccccc2)=NN1)c1ccccc1 (stereo not drawn) |  |  |  |  | TGI (XF 498 CNS): 60.4 µM; TGI (DLD-1 colon): > 100 µM; TGI (DMS 273 small cell lung): > 100 µM
24 | C#Cc1cccc(Nc2nc(C)nc3cc(NC(=O)CCl)ccc23)c1 | 10.2 | 5.31 | 2.8 | 1.32 | 
25 | Oc1cccc2ccc(SSc3ccc4cccc(O)c4n3)nc12 | > 100 | 37.6 |  |  | TGI (MDA-N): 38.6 µM
26 | Oc1cccc2cccnc12 | > 100 | > 100 | > 100 |  | TGI (HOP-18 NSCLC): > 100 µM; TGI (MDA-N): > 100 µM; TGI (LXFL 529 NSCLC): > 100 µM; TGI (DLD-1 colon): > 100 µM; TGI (DMS 273 small cell lung): 7.98 µM
27 | CO[C@H]1/C=C/O[C@@]2(C)Oc3c(C)c(O)c4c(O)c(c(/C=N/N5C(C)CN(Cc6ccc(C#N)cc6)CC5C)c(O)c4c3C2=O)NC(=O)/C(C)=C\C=C\[C@H](C)[C@H](O)[C@@H](C)[C@@H](O)[C@@H](C)[C@H](OC(C)=O)[C@@H]1C (stereo partly drawn) | 20.3 | 23.5 | 8.83 | 8.85 | 
28 | Oc1c(CN2CCCCC2)ccc2cccnc12 | > 100 | > 100 | 11.1 | 10.4 | 
29 | O=c1cc(-c2ccccc2)oc2c(O)c(O)ccc12 | > 100 | 42.3 | 37.2 | 8.36 | 
30 | COc1nc2c(c(=O)n1C)CN(c1ccccc1)C(=O)CN2C | 73.4 | > 100 | 13 | 33.2 | 
31 | COc1ccc(-c2oc3ncnc(N)c3c2-c2ccc(NC(=O)Nc3cc(C(F)(F)F)ccc3F)cc2)cc1 | 4.67 | 5.08 | 0.833 | 1.82 | 
32 | C[N+]1(CCNP(=S)(NCC[N+]2(C)Cc3c(ccc4c3OCO4)C3C2c2cc4c(cc2C[C@@H]3O)OCO4)NCC[N+]2(C)Cc3c(ccc4c3OCO4)C3C2c2cc4c(cc2C[C@@H]3O)OCO4)Cc2c(ccc3c2OCO3)C2C1c1cc3c(cc1C[C@H]2O)OCO3 (stereo partly drawn) |  |  |  |  | GI50 (HOP-18 NSCLC): 45.2 µM; GI50 (LXFL 529 NSCLC): 2.75 µM; GI50 (XF 498 CNS): 0.846 µM; GI50 (DLD-1 colon): 1.68 µM; TGI (DMS 273 small cell lung): < 0.00191 µM
33 | CCCC(=O)Oc1ccc(/C=N/NC(N)=S)nc1 |  |  |  |  | TGI (HOP-18 NSCLC): > 100 µM; TGI (LXFL 529 NSCLC): > 100 µM; TGI (DLD-1 colon): > 100 µM; TGI (DMS 273 small cell lung): > 100 µM
